Like-named read-outs stand apart in the source and are kept apart here.
How the values were obtained:
Bcl-xL protein = target: T1, Bcl-xL protein (Homo sapiens, UniProt Q07817); assay: Degradation experiment of Bcl-xL target protein (Western blot in Molt-4 cells); format: cell-based; settings: 100 nM, 0, 2, 6, 16 h, GAPDH internal control, Figure 4
T1 construct: host or cells: Molt-4 cells

platelets = assay: In vivo platelet toxicity test in mice
Experimental: The in vivo platelet toxicity test was performed by using 5-6 week old female C57BL/6J mice. The C57BL/6J mice were purchased from Beijing Vital River Laboratory Animal Technology Co., Ltd. and housed under specific pathogen-free (SPF) conditions, with a 12-hour light/12-hour dark cycle, and free access to food and water. […] Different doses of the molecules to be tested (e.g., 0.1, 0.5, 2.5 mg/kg or 2, 5, 20 mg/kg) were prepared in advance with the aforementioned vehicle, and administered to mice via intraperitoneal injection at a volume of 200 µL for each mouse. After administration was completed, approximately 50 µL of blood was collected from each mouse at different time points via the intra-canthus sampling method into EDTA anticoagulant tubes (RAM Scientific), then a routine analysis of blood was performed by using a hematology analyzer, and the platelets was counted.

Molt-4 cells = assay: Molt-4 cell killing activity test (CCK-8); format: cell-based; settings: for EC50: Homo sapiens
In short: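 Molt-4 cells in RPMI-1640 with 10% FBS were exposed to compounds at 0.001–3 µM final, triplicate wells, for three days at 37°C. Viability was read by CCK-8 absorbance at 450 nm after 0.5–2 h, expressed relative to blank control.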

HEF cells = assay: Senescent cell killing activity test, HEF cell model (CCK-8); format: cell-based, human; settings: for activity for killing senescent cells at lower concentrations compared to A-1331852: HEF cell model, 0.01 µM and 0.03 µM; for killing senescent HEF cells: etoposide-induced senescent vs normal HEF cells, Figures 3A-3F; for toxicity on normal non-senescent HEF cells: higher concentration (25 µM)
[1] = 72 h, Molt-4 cells, three days, CCK-8, read-out: EC50 (Molt-4)
[2] = Bcl-xL-positive Molt-4 cells, read-out: cellular activity / killing activity (Molt-4 cells)

T1 sequence (Q07817 whole entry): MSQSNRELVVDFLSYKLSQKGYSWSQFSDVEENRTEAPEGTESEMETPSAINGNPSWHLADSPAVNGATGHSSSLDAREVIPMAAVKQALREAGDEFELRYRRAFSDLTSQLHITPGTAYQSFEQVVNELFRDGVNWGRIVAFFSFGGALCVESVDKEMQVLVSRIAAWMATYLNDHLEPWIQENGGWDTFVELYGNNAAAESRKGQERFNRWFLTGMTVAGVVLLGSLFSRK

Row | Structure (SMILES) | degradation of the Bcl-xL protein (Bcl-xL protein) | platelet number (platelets; intraperitoneal, three tested dose groups 0.1, 0.5, and 2.5 mg/kg, Figure 5A) | killing Molt-4 cells at different concentrations (Figure 1), in words (Molt-4 cells; Figure 1, 0.001-3 µM, comparison with control molecules) | EC50 (Molt-4 cells; [1]) [nM] | EC50 (Molt-4 cells; [2]) [nM] | activity for killing senescent cells at lower concentrations compared to A-1331852 (HEF cells) | killing senescent HEF cells (HEF cells) | toxicity on normal non-senescent HEF cells (HEF cells) | platelet number in peripheral blood, in words (platelets; intraperitoneal, 5 mg/kg, Figure 5B) | platelet number at the highest dose (platelets; intraperitoneal, 20 mg/kg, decrease lower than A-1331852 at 2 mg/kg, Figure 5C) | platelet toxicity compared to A-1331852 at equivalent doses (platelets; intraperitoneal, 2, 5, and 20 mg/kg, Figure 5C)
1 | O=C1CCC(N2C(=O)c3cccc(NCCN4CCC(CN5CCN(CC#Cc6ccc(OCCCc7ccc(N8CCc9cccc(C(=O)Nc%10nc%11ccccc%11s%10)c9C8)nc7C(=O)O)c(F)c6)CC5)CC4)c3C2=O)C(=O)N1 (centres unmarked) [APQ2] | had the ability to degrade the Bcl-xL protein | no significant decrease in platelet number | comparable to A-1331852 | < 10 | < 10 | better activity for killing senescent cells at lower concentrations | efficiently and selectively kill senescent HEF cells | no toxicity on normal non-senescent HEF cells | – | – | –
2 | O=C1CCN(c2ccc(N3CCC(CN4CCN(CC#Cc5ccc(OCCCc6ccc(N7CCc8cccc(C(=O)Nc9nc%10ccccc%10s9)c8C7)nc6C(=O)O)c(F)c5)CC4)CC3)cc2)C(=O)N1 [APQ10] | had the ability to degrade the Bcl-xL protein | – | – | < 10 | < 10 | better activity for killing senescent cells at lower concentrations | efficiently and selectively kill senescent HEF cells | no toxicity on normal non-senescent HEF cells | slightly decrease in platelet number | significant decrease in the platelet number | lower platelet toxicity
